Literature values, collected in patent publication US8962267B1, “Method for predicting the response of non-small cell lung cancer patients to targeted pharmacotherapy” (Pamgene B.V., priority 2009, dated 2015).

System: NSCLC
Settings: second-line treatment of NSCLC patients, clinical trials, versus control

SMILES	overall survival [months]
CC(=O)O[C@@]12CO[C@@H]1C[C@H](O)[C@@]1(C)C(=O)[C@H](O)C3=C(C)[C@@H](OC(=O)[C@H](O)[C@@H](NC(=O)OC(C)(C)C)c4ccccc4)C[C@@](O)([C@@H](OC(=O)c4ccccc4)[C@H]21)C3(C)C [docetaxal, docetaxel]	7.5
C#Cc1cccc(Nc2ncnc3cc(OCCOC)c(OCCOC)cc23)c1 [erlotinib]	6.7
Nc1nc2[nH]cc(CCc3ccc(C(=O)N[C@@H](CCC(=O)O)C(=O)O)cc3)c2c(=O)[nH]1 [pemetrexed]	8.3
